US20240261375A1, “PHARMACEUTICAL COMPOSITION FOR TREATING OR PREVENTING DISORDER ASSOCIATED WITH ADMINISTRATION OF ANTICANCER AGENT” (LTT BIO-PHARMA CO., LTD., priority 2021, published 2024)

How the values were obtained:
[1] = tested on: Large intestine cancer cells (colo320, HCT116); assay: Proliferation of large intestine cancer cells (CCK-8); type: cell-based; settings: OXA dilutions + PC-SOD 50 μg/mL, 72 hours; FIG. 6
Experimental: Large intestine cancer cells (colo320, HCT116) were added to RPM1640 medium (Thermo Fisher Scientific Inc.) containing 10% fetal bovine serum and 100 units/mL penicillin-streptomycin (Gibco BRL) and cultured at 37° C. in a 5% CO2 incubator.
Cells were seeded on a 96-well plate at 10 000 cells/well and treated with a test solution 24 hours later. A test solution containing OXA alone was diluted 3-fold from 100 μM (10 levels) and added to a 96-well plate. A test solution containing OXA+PC-SOD was obtained by adding the same concentrations of OXA to PC-SOD (50 μg/mL) (n=3 per group). After cells were cultured for 72 hours, a CCK-8 solution was added in a volume of 1/10 of the solution in each well, and the mixture was measured at 490 nm of absorbance (Tecan, Tecan Japan). Data were expressed with mean±standard error (SEM). It should be noted that experiment conditions were allowed to be changed as required.

[2] = tested on: RAW cells; assay: Toxicity of anticancer agents against RAW cells (CellTiter-Glo viable cell count); type: cell-based; settings: gemcitabine, oxaliplatin, cisplatin or carboplatin with simultaneous PC-SOD, 24 hours; FIG. 12-2
Experimental: RAW cells were seeded on a 96-well plate at 20 000 cells/well (D-MEM high glucose medium containing 10% inactivated FBS). […] The number of viable cells was counted 24 hours later by measuring chemical luminescence by using CellTiter-Glo™ 2.0 Cell Viability Assay (Promega) and a plate reader (Tecan, Infinite M Plex). Cells for four wells were analyzed for each group.

[3] = tested on: L5 DRG neurons of OXA-treated rats; assay: Assessment of pathological damage to DRG (HE staining); type: in vivo, rat; settings: OXA+PC-SOD 1 mg/kg; FIG. 4
Excerpt: A tissue of L5 DRG neuron was collected, stored in a 10% neutral buffered formalin solution, fixed, and then washed with PBS. The tissue was subjected to 70% ethanol substitution to prepare a paraffin block, and the block was thinly sliced and subjected to HE staining. The thickness of the thinly sliced sample block was from 2 to 3 μm. By using the prepared pathological sample slide, one to three images of each sample were captured at 200 and 400-fold magnifications by the optical microscope function of All-in-One Fluorescence Microscope (BZ-X800, Keyence Corporation). Multinucleation of the nucleolus of DRG neurons and abnormal morphology of the nucleolus were assessed as indicators of DRG neuron disorder (Scale bar=50 μm).

lecithinized superoxide dismutase [PC-SOD]
influence on the anti-tumor effect of oxaliplatin (cell proliferation) [1]: did not affect the anti-tumor effect of oxaliplatin
anticancer agent-dependent decrease in number of viable RAW cells [2]: significantly suppressed the anticancer agent-dependent decreases in the number of viable cells dependently on the concentration of PC-SOD
pathological damage to DRG caused by OXA (multinucleation and abnormal morphology of nucleoli) [3]: a suppressive effect on pathological damage to DRG caused by OXA was shown
